For series [1], the system named is Mv-1-Lu mink lung epithelial cells. In words: Inhibition of DNA synthesis (3H-thymidine incorporation) of Mv-1-Lu mink lung epithelial cells. The format is cell-based. Conditions: cytomodulin at the same concentration. Here is the method:
The effect of TGF-β and cytomodulin were evaluated by determining the rate of [1H]thymidine incorporation into total acid-insoluble DNA and cell number. See generally, Sampath et al., J. Biol. Chem., 267, pp. 20352-20362 (1992). DNA synthesis rates were determined in triplicate cultures after 24 hour treatment with various concentrations (10^-9 M to 10^-6 M) of either TGF-β or cytomodulin (which was synthesized by the Merrifield method) by adding [methyl-3H]thymidine (2 uCi/ml, 80 Ci/mmol) for 6 hours before the termination of the culture. Incorporation was terminated by aspiration of the medium, and after washing three times with phosphate-buffered saline, the trichloroacetic acid (10%)-precipitated radioactive DNA was extracted with 1.0% (w/v) sodium dodecyl sulfate, 0.1 M NaOH and quantitated by liquid scintillation counting. For cell number determination, 1×10^5 cells were plated in flasks in MEM containing 10% FBS, and after 24 hours, the growth medium was replaced with serum-free medium containing various conceptions of TGF-β and cytomodulin. Triplicate cultures were harvested every 24 hours for the duration of 7 days, and the cell number was determined by counting cells released by trypsin digestion in a fixed volume hemacytometer.
The numbers shown at the various concentration are the ratio of the inhibition rate of the peptide being tested over the inhibition rate of cytomodulin (SEQ ID NO: 1) at the same concentration.

The subject of the next series is NRK-49 F fibroblasts. In words: Growth and colony formation by NRK-49 F fibroblasts in soft agar. The format is cell-based. The protocol: The original assay for TGF-β, the ability to promote anchorage independent growth of normal fibroblasts is still one of the hallmarks of TGF-β activity. NRK49 F fibroblasts were grown at 37° C. in DEM supplemented with 10% fetal calf serum. […] To this, either 100 nM TGF-β (positive control) or 100 nM cytomodulin was added. NRK49 F fibroblasts (5×10^4 cells/ml) were mixed with 0.3% agar were plated on the bottom of 35 mm culture dishes. Colony formation was observed starting on day 3 of culture.

Series [2] concerns contact dermatitis on both hands. Also on record: species or system human. The note with it: in vivo. The text has this:
A person had suffered from contact dermatitis on both hands for approximately 5 to 6 years. Signs of dermatitis, such as rash, itching, crustiness, thin skin (steroids) when flexed hand would start bleeding where lines, were apparent over approximately 100 cm^2 of the right and left hands, respectively (all of palm and fingers). The individual applied a lotion comprising cytomodulin (SEQ ID NO: 1) at a concentration of about approximately 0.01% once per day at night. The amount applied was about 0.25 ml per hand. After 3-4 days healing of the dermatitis was apparent. In approximately two weeks the dermatitis was completely healed.

The subject of a further series is insect bite. Also on record: species or system human. The note with it: in vivo. The text has this:
A person reported that they were very allergic to insect bites, which usually made a large red welt, then turned purple and looked like a severe bruise, lasting for about a week.

Where a SMILES comes first, the peptide text is derived from it. Where no end group is shown, it is not given here.

With L-I-A-G-G-E (LIAGGE) [SEQ ID NO: 13], the “Inhib by new peptide/Inhib by cytomodulin (3H-thymidine incorporation)” value (from here on “Inhib by new peptide/Inhib”) in series [1] (1 nM) was 1.10; in series [1] (10 nM) it was 1.33; in series [1] (100 nM) it was 1.45; in series [1] (1000 nM) it was 1.90.

In the case of L-I-A-Q-A-K (LIAQAK) [SEQ ID NO: 12], the “Inhib by new peptide/Inhib” value in series [1] (1 nM) came out at 0.90; in series [1] (10 nM) it was 1.10; in series [1] (100 nM) it was 0.80; in series [1] (1000 nM), 1.56.

With L-I-A-E-A-A (LIAEAA) [SEQ ID NO: 11], the “Inhib by new peptide/Inhib” value came out at 1.16 in series [1] (1 nM), 1.00 in series [1] (10 nM), 1.17 in series [1] (100 nM) and 1.85 in series [1] (1000 nM).

Take A-N-V-A-E-K (ANVAEK) [SEQ ID NO: 15]: the “Inhib by new peptide/Inhib” value worked out at 0.80 in series [1] (10 nM) and 1.00 in series [1] (100 nM).

For the compound L-I-A-K-G-K (LIAKGK) [SEQ ID NO: 16], the “Inhib by new peptide/Inhib” value in series [1] (10 nM) stood at 0.65; in series [1] (100 nM), 0.67.

Regarding LIAEAK [L2], the “growth and colony formation of NRK-49 F cells in soft agar (in words)” value with NRK-49 F fibroblasts is on record as “promoted the growth”.

On to L-I-A-N-A-K (LIANAK) [SEQ ID NO: 10], for which the “Inhib by new peptide/Inhib” value came out at 1.70 in series [1] (1 nM), 2.00 in series [1] (10 nM), 1.43 in series [1] (100 nM) and 3.05 in series [1] (1000 nM).

In the case of LIAPEA [L1], the “growth and colony formation of NRK-49 F cells in soft agar (in words)” value in the series on NRK-49 F fibroblasts was “promoted the growth”.

With `CC(C)[C@H](NC(=O)[C@H](CC(N)=O)NC(=O)[C@H](C)N)C(=O)N[C@@H](C)C(=O)N[C@@H](CCC(=O)O)C(=O)N[C@@H](CC(N)=O)C(=O)N[C@@H](C)C(=O)O` [cytomodulin, Ala-Asn-Val-Ala-Glu-Asn-Ala] (H-ANVAENA-OH), the “negative effects of application of the lotion” value in series [2] is given as “No negative effects”. Moreover, the adverse effects result in the series with insect bite was “no adverse effects”.

On to L-I-A-D-A-K (LIADAK) [SEQ ID NO: 9], for which the “Inhib by new peptide/Inhib” value in series [1] (1 nM) stood at 0.45; in series [1] (10 nM), 0.87; in series [1] (100 nM) it was 1.14; in series [1] (1000 nM), 1.25.

Turning to L-I-A-G-E-G (LIAGEG) [SEQ ID NO: 14], the “Inhib by new peptide/Inhib” value in series [1] (1 nM) came to 0.66; in series [1] (10 nM), 0.85; in series [1] (100 nM) it was 1.41; in series [1] (1000 nM) it was 1.88.

These data come from US20060293228A1, “Therapeutic compositions and methods using transforming growth factor-beta mimics” (priority 2005, published 2006).
